Our source for the TGI and GI50 values is PubChem BioAssay (NCI).

Among the test systems are UACC-62 melanoma; CCRF-CEM leukemia; MALME-3M melanoma; TK-10 renal; HL-60(TB) leukemia; RPMI-8226 leukemia; 786-0 renal; SNB-19 CNS; HOP-92 NSCLC; BT-549 breast.
Common to all, as to assay: inhibition of tumour cell growth, NCI panel, 48 h

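Following 48 hours of exposure in 96-well plates, responses at five concentrations were used to interpolate endpoints linearly. GI50 = concentration required for 50% inhibition of growth. TGI is the concentration that stops growth completely.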 Where only a bound is given, the exact number is not on record here.

As to `O=C(N/C(=C\c1cc(Cl)ccc1Cl)c1nc2ccc(Cl)cc2[nH]1)c1ccccc1`, the TGI in the assay with UACC-62 melanoma was determined as 24.8 µM; in the assay on CCRF-CEM leukemia, 51.4 µM; with MALME-3M melanoma it was 35.8 µM; in the assay on TK-10 renal, 10.9 µM; with HL-60(TB) leukemia it was 37.1 µM; in the assay with RPMI-8226 leukemia, 40.4 µM. Moreover, the TGI with 786-0 renal was found to be 71.9 µM; in the assay with SNB-19 CNS, 60.1 µM; with HOP-92 NSCLC, 24.4 µM.
For the compound `CCCCCCCCCCCCCP(=O)(NCC(N)=O)OCC` (configuration not stated), the TGI in the assay with UACC-62 melanoma came out at 33 µM; with CCRF-CEM leukemia, 47.7 µM; in the assay with MALME-3M melanoma it was 32.6 µM; with TK-10 renal it was 37.4 µM; in the assay on HL-60(TB) leukemia, 38.2 µM; with 786-0 renal it was 29 µM. The TGI is 34.3 µM in the assay with SNB-19 CNS and 31.1 µM in the assay on HOP-92 NSCLC.
Take `CN1CCc2c1nc(-c1cccnc1)c1c2N(C)CC1`: the TGI with UACC-62 melanoma, in the assay with CCRF-CEM leukemia, with MALME-3M melanoma, in the assay with TK-10 renal, with HL-60(TB) leukemia and with RPMI-8226 leukemia was above 100 µM in each case. Besides, the TGI with 786-0 renal, in the assay with SNB-19 CNS and with HOP-92 NSCLC was above 100 µM in each case.
As to `CCC1C(=O)OCc2c1cc1n(c2=O)C(CC)c2c-1nc1ccccc1c2Cl` (configuration not stated), the TGI is above 100 µM in the assay with UACC-62 melanoma; above 100 µM in the assay on CCRF-CEM leukemia; above 100 µM in the assay with MALME-3M melanoma; above 100 µM in the assay on TK-10 renal; 57.3 µM with HL-60(TB) leukemia; 50 µM in the assay with RPMI-8226 leukemia. The TGI was 33.9 µM in the assay on 786-0 renal, above 100 µM in the assay on SNB-19 CNS and above 100 µM in the assay with HOP-92 NSCLC.
In the case of `COC(=O)/C(C#N)=C1\CCc2ccccc21`, the TGI in the assay on UACC-62 melanoma, in the assay on CCRF-CEM leukemia, in the assay with MALME-3M melanoma, with TK-10 renal, with HL-60(TB) leukemia and in the assay with RPMI-8226 leukemia was above 100 µM in each case. Further, the TGI in the assay on 786-0 renal, in the assay with SNB-19 CNS and in the assay on HOP-92 NSCLC was above 100 µM each time.
`N.N.N.N.N.O=S(=O)([O-])C(F)(F)F.O=S(=O)([O-])C(F)(F)F.[Os+8]`: the GI50 was 12.1 µM in the assay on UACC-62 melanoma; 6.89 µM with CCRF-CEM leukemia; 4.53 µM with MALME-3M melanoma; 33 µM in the assay with TK-10 renal; 8.92 µM in the assay on HL-60(TB) leukemia; 8.7 µM in the assay with RPMI-8226 leukemia. The GI50 was 4.2 µM in the assay with 786-0 renal and 14.8 µM in the assay with HOP-92 NSCLC. For the same compound, the TGI is 28.2 µM in the assay on UACC-62 melanoma; 40.6 µM in the assay on CCRF-CEM leukemia; 19.9 µM in the assay on MALME-3M melanoma; 95.4 µM with TK-10 renal; 36.2 µM in the assay on HL-60(TB) leukemia; above 100 µM in the assay with RPMI-8226 leukemia. Moreover, the TGI with 786-0 renal came out at 16.4 µM; in the assay with HOP-92 NSCLC, 35.8 µM.
As for `COC(=O)C#CCC1CCCC1C1SCCS1` (configuration not stated), the TGI with UACC-62 melanoma is above 100 µM; in the assay with CCRF-CEM leukemia, 72.3 µM; in the assay with MALME-3M melanoma it was above 100 µM; with TK-10 renal it was above 100 µM; in the assay on HL-60(TB) leukemia, above 100 µM; in the assay on 786-0 renal, above 100 µM. In addition, the TGI in the assay on SNB-19 CNS and in the assay on HOP-92 NSCLC was above 100 µM throughout.
Take `O=C(O)[C@@H](NS(=O)(=O)c1ccc2ccccc2c1)c1ccccc1`: the TGI with UACC-62 melanoma, in the assay on CCRF-CEM leukemia, in the assay on MALME-3M melanoma, with HL-60(TB) leukemia, in the assay on RPMI-8226 leukemia and in the assay with 786-0 renal was above 100 µM in each case. Besides, the TGI with SNB-19 CNS and with HOP-92 NSCLC was above 100 µM throughout.
Consider `O=C(NCC(=O)N1CCOC1=O)OCc1ccccc1`, for which the TGI in the assay with UACC-62 melanoma, in the assay on CCRF-CEM leukemia, in the assay on TK-10 renal, in the assay with HL-60(TB) leukemia, in the assay on RPMI-8226 leukemia and in the assay on 786-0 renal was above 100 µM throughout. Moreover, the TGI with SNB-19 CNS and with HOP-92 NSCLC was above 100 µM each time.
With `CCN(CC)CCC(CNc1c(C)cnc2cc(Cl)ccc12)c1ccc(Cl)cc1` (configuration not stated), the GI50 with UACC-62 melanoma is 2.23 µM; with CCRF-CEM leukemia it was 4.32 µM; in the assay with TK-10 renal, 10.9 µM; in the assay on BT-549 breast, 11.2 µM; in the assay on HL-60(TB) leukemia it was 4.45 µM; in the assay on RPMI-8226 leukemia, 2.96 µM. For the same compound, the GI50 in the assay with 786-0 renal is 8.53 µM; with SNB-19 CNS it was 11.4 µM. For the same compound, the TGI was found to be 5.16 µM in the assay with UACC-62 melanoma; 19.2 µM in the assay with CCRF-CEM leukemia; 23.8 µM in the assay on TK-10 renal; 24.9 µM in the assay on BT-549 breast; 26.9 µM in the assay with HL-60(TB) leukemia; 13.6 µM with RPMI-8226 leukemia. Moreover, the TGI with 786-0 renal stood at 22.6 µM; in the assay with SNB-19 CNS it was 26.8 µM.
Take `C#C[C@H]1CCCCCC1O` (some centres not stated): the TGI in the assay with UACC-62 melanoma, in the assay on CCRF-CEM leukemia, with MALME-3M melanoma, in the assay with TK-10 renal, with HL-60(TB) leukemia and in the assay on 786-0 renal was above 100 µM each time. For the same compound, the TGI in the assay with SNB-19 CNS and in the assay on HOP-92 NSCLC was above 100 µM in each case.
In the case of `Cc1cc(C)nc(NS(=O)(=O)c2ccc(NC(=O)c3cccn4c(=O)c5ccccc5nc34)cc2)n1`, the TGI is 51.9 µM in the assay with UACC-62 melanoma; above 100 µM in the assay with CCRF-CEM leukemia; above 100 µM with TK-10 renal; 44.1 µM in the assay with HL-60(TB) leukemia; above 100 µM in the assay on 786-0 renal; above 100 µM with SNB-19 CNS.
As to `CC/C=C\C/C=C/C=C1/C(=O)C=C[C@@H]1C/C=C\CCCC(=O)OC`, the GI50 was 2.24 µM in the assay on UACC-62 melanoma; 1.25 µM with CCRF-CEM leukemia; 2.5 µM in the assay on MALME-3M melanoma; 4.13 µM in the assay with TK-10 renal; 2.24 µM in the assay with HL-60(TB) leukemia; 2.46 µM in the assay with RPMI-8226 leukemia. The GI50 was 2.71 µM in the assay with 786-0 renal, 5.06 µM in the assay with SNB-19 CNS and 3.07 µM with HOP-92 NSCLC. For the same compound, the TGI in the assay on UACC-62 melanoma stood at 5.17 µM; in the assay on CCRF-CEM leukemia, 8.7 µM; in the assay with MALME-3M melanoma, 6.64 µM; in the assay with TK-10 renal it was 15.4 µM; in the assay with HL-60(TB) leukemia it was 12.5 µM; in the assay on RPMI-8226 leukemia, 12.8 µM. Moreover, the TGI was 6.91 µM with 786-0 renal, 19.3 µM with SNB-19 CNS and 8.49 µM in the assay on HOP-92 NSCLC.
